Data on one compound can be found in US4965262A, “Method for treating or preventing locally periodontal disease” (Rohto Pharmaceutical Co., Ltd., priority 1987, dated 1990).

The structures appear in SMILES notation. Read-outs that look alike come from different tables or passages of the source. Some results are limits rather than exact numbers.

One data set relates to dogs. The conditions noted are these: cited from earlier work.
A further data set has as its system monkeys. The note with it: cited from earlier work.
Data set [1] can be described thus: Concentration of ofloxacin in periodontal fluid in the pockets after local administration. The format is in vivo, volunteers. On the procedure: The preparations of Example 3 containing ofloxacin to be inserted into the periodontal pockets were locally administered to the pockets of volunteers and the concentration of ofloxacin in the periodontal fluid in the pockets was determined and compared with that in saliva obtained by oral administration thereof. In the test, the preparations of Example 3 having a thickness of 0.3 mm and width of 1 mm was cut into strips having a length of 4 mm (each containing 0.06 mg of ofloxacin). The strip was inserted into a periodontal pocket of each volunteer. The probing depth of the pocket was 5 mm. After a given time, a filter paper having a width of 1 mm was inserted into the pocket to take the periodontal fluid out of the pocket. The amount of ofloxacin in the periodontal fluid was determined from the diameter of an inhibition circle according to an agar plate diffusion method with E. coli K 12. The quantity of the periodontal fluid thus taken out was determined from a calibration curve prepared from the quantity of a previously prepared liquid sample and the wetted area of the filter paper. The concentration of ofloxacin was thus determined. The time profile of the concentration of ofloxacin in saliva in the oral administration was taken from a report of Morihana et al. (Chemotherapy, 32: Sl, 1070, 1984).

For data set [2] the following is noted: cited from earlier work; for average concentration of ofloxacin in saliva: oral, 200 mg/body, 8 subjects.

Turning to `CC1COc2c(N3CCN(C)CC3)c(F)cc3c(=O)c(C(=O)O)cn1c23` (stereo not drawn) [ofloxacin, 9-fluoro-2,3-dihydro-3-methyl-10-(4-methyl-1-piperazinyl)-7-oxo-7H-pyrido[1,2,3-de][1,4]benzoxazine-6-carboxylic acid], the results for the “Acute toxicity (LD50 in oral administration)” value in the data set with dogs and with monkeys were not below 200 mg/kg and 500 to 1,000 mg/kg, respectively. The “time for which concentration in the pocket was maintained above 70 μg/ml” value in data set [1] (0.06 mg inserted into the periodontal pocket) is more than 5 h. For the same compound, the concentration at 5 h in data set [1] (human, periodontal fluid, 0.06 mg inserted into the periodontal pocket, for longer than 5 h, read-out: concentration in the pocket maintained) was more than 70000 ng/mL. In data set [1] (human, periodontal fluid, 0.06 mg/pocket, 24 h, 8 pockets of 4 subjects), this compound had a concentration at 24 h of 16600 ng/mL. For the same compound, in data set [2] (oral administration of 200 mg, in 3 hours), the “maximum concentration in saliva” value is 1.8 µg/mL. In addition, the “time of maximum concentration in saliva” value in data set [2] (oral administration of 200 mg) was 3 h. The “average concentration of ofloxacin in saliva” value in data set [2] (1 h) is 1.18 µg/mL; in data set [2] (2 h), 1.59 µg/mL; in data set [2] (3 h), 1.80 µg/mL; in data set [2] (4 h), 1.65 µg/mL; in data set [2] (5 h), 1.40 µg/mL.
